Experiments:
[1] = test system: normal, healthy volunteers; test: clinical trial of subjective mood enhancement after ingestion of the prepared beverage, eight test groups; format: in vivo, human; settings: for duration of effect: following ingestion of the prepared beverage; for Score, subjective feeling of mood enhancement: scale of 0 (no change) to 10 (euphoric), N=10 per group, oral solution in 125 mL juice, 10 day period; for mood effect as described: subjective report in words
Protocol: A set of clinical trials were performed using the median dosing of a ‘typical formulation’ in randomly selected normal, healthy volunteers ranging from 14 to 80 years (mean age 44.5 years) greater than 50 kg body weight over a 10 day period. At the end of the clinical trial, subjects were asked to subjectively rate the feeling of mood enhancement, ranging from a scale of 0 (no change) to 10 (euphoric) and to rate the duration of effect (in hours) following ingestion of the prepared beverage. Members also were encouraged to report any side effects, if any.
Eight different test groups of ten human subjects each (N=10) were devised as follows:
Test Group 1: Oral solution containing 125 mL juice (7% carbohydrate), 3 times daily. This formulation represents placebo.
(§1) Test Group 2: L-Phenylalanine, 800 mg and mucina pruriens, 15% L-DOPA, 200 mg oral solution in 125 mL juice (containing 7% carbohydrate), 3 times daily. This nootropic formulation affects the following neurotransmitter systems: dopamine agonist, a stimulant. The type number ratio is 2:0:0:0:0 to produce a ΔN=+2. This agent fails the test for producing predictable mood enhancement because it is has an imbalanced type number ratio, resulting in a net stimulatory effect (ΔN=+2), and producing a predictable mood over stimulation.
as §1, with “3: Phenylethylamine hydrochloride, 400” for “2: L-Phenylalanine, 800 mg and mucina pruriens, 15% L-DOPA, 200”, “single dose.” for “3 times daily.”, “1:0:0:0:0” for “2:0:0:0:0”, “ΔN=+1.” for “ΔN=+2.”, “(ΔN=+1),” for “(ΔN=+2),”
(§2) Test Group 4: Dimethylaminoethanol bitartrate, 300 mg oral solution in 125 mL juice (containing 7% carbohydrate), 3 times daily. This nootropic formulation affects the following neurotransmitter systems: acetylcholine agonist, an inhibitor. The type number ratio is 0:1:0:0:0 to produce a ΔN=−1. This agent fails the test for producing predictable mood enhancement because it is has an imbalanced type number ratio, resulting in a net inhibitory effect (ΔN=−1), and producing a predictable mood suppression.
as §2, with “5: S-Adenosyl-methionine tosylate disulfate,” for “4: Dimethylaminoethanol bitartrate,”, “serotonin” for “acetylcholine”, “0:0:1:0:0” for “0:1:0:0:0”
as §1, with “6: Anhydrous caffeine, 80” for “2: L-Phenylalanine, 800 mg and mucina pruriens, 15% L-DOPA, 200”, “adenosine antagonist,” for “dopamine agonist,”, “0:0:0:0:1” for “2:0:0:0:0”, “ΔN=+1.” for “ΔN=+2.”, “(ΔN=+1),” for “(ΔN=+2),”
as §2, with “7: L-Theanine, 200” for “4: Dimethylaminoethanol bitartrate, 300”, “GABA” for “acetylcholine”, “0:0:0:1:0” for “0:1:0:0:0”, “suppression. […]” for “suppression.”

[2] = doses as low as; cited from earlier work

Compound	side effects reported ([1]; 10 subjects per group)	duration of effect [1]	Score, subjective feeling of mood enhancement [1]	mood effect as described [1]	dose producing hallucinogenic and entheogenic effects [2] [µg]	side effects reported ([1]; human, in vivo)	mood effect as described ([1]; hydrochloride)	mood effect as described ([1]; listed as Phenylethyamine hydrochloride, hydrochloride)	mood effect as described ([1]; listed as S-adenosyl-methionine tosylate disulfate)
Cn1c(=O)c2c(ncn2C)n(C)c1=O [Test Group 6, Anhydrous caffeine]	No side effects reported	2 h	3.0	felt alert	–	–	–	–	–
CCN(CC)C(=O)[C@@H]1C=C2c3cccc4[nH]cc(c34)C[C@H]2N(C)C1 [LSD]	–	–	–	–	30 to 40	–	–	–	–
CCNC(=O)CC[C@H](N)C(=O)O [Test Group 7, L-Theanine]	–	3 h	6.5	very calm, sedative-like effect	–	No side effects reported	–	–	–
Dimethylaminoethanol bitartrate [Test Group 4]	headache in 1 of 10 subjects	less than 1 hours	2.0	mild effect	–	–	–	–	–
Cl.NCCc1ccccc1 [Test Group 3, Phenylethylamine hydrochloride]	flushing in 4 of 10 subjects	less than 30 minutes	7.5	–	–	–	temporary euphoric feeling	noticeable but short-term effect	–
S-Adenosyl-methionine tosylate disulfate [Test Group 5]	No side effects reported	3 h	6.0	better mood	–	–	–	–	moderate mood enhancement

Reference: patent publication US8609162B2, “Integrated neuromodulation system for mood enhancement of a living human subject” (priority 2012, dated 2013)
